Experimental data published in US20240360157A1, “TYK2 INHIBITORS” (BIOGEN MA INC., priority 2021, published 2024).

Key:
Format in all cases: biochemical
[1] = biological target: human JAK1 catalytic kinase (JH1) domain (Homo sapiens (Human), UniProt P23458); experiment: ADP-Glo Kinase Assay, recombinant JAK1 catalytic kinase (JH1) domain; conditions: recombinant JH1 domain 4 nM, 35 μM ATP, JAK3-342 peptide, mean, read-out: JAK1 biochem IC50 (nM) Mean
Summary of the method: (§1)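 Reactions ran 100 min with 50 μM substrate peptide (JAK3-342 for JAK1 at 4 nM enzyme; JAK3-974 for JAK2 0.2 nM, JAK3 0.3 nM, TYK2 2 nM), and ADP formed was read by ADP-Glo luminescence. Eleven-point 3-fold series from 10 or 1 μM; IC50 fitted by 4-parameter logistic model.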

[2] = biological target: human JAK3 catalytic kinase (JH1) domain (Homo sapiens (Human), UniProt P52333); experiment: ADP-Glo Kinase Assay, recombinant JAK3 catalytic kinase (JH1) domain; conditions: recombinant JH1 domain 0.3 nM, 4 μM ATP, JAK3-974 peptide, mean, read-out: JAK3 biochem IC50 (nM) Mean
Summary of the method: as §1

[3] = biological target: human TYK2 catalytic kinase (JH1) domain (Homo sapiens (Human), UniProt P29597); experiment: ADP-Glo Kinase Assay, recombinant TYK2 catalytic kinase (JH1) domain; conditions: recombinant JH1 domain 2 nM, 10 μM ATP, JAK3-974 peptide, mean, read-out: TYK2 biochem IC50 (nM) Mean
Summary of the method: as §1

[4] = biological target: human JAK2 catalytic kinase (JH1) domain (Homo sapiens (Human), UniProt O60674); experiment: ADP-Glo Kinase Assay, recombinant JAK2 catalytic kinase (JH1) domain; conditions: recombinant JH1 domain 0.2 nM, 15 μM ATP, JAK3-974 peptide, mean, read-out: JAK2 biochem IC50 (nM) Mean
Summary of the method: as §1

Sequence of human JAK3 catalytic kinase (JH1) domain (P52333 822-1111): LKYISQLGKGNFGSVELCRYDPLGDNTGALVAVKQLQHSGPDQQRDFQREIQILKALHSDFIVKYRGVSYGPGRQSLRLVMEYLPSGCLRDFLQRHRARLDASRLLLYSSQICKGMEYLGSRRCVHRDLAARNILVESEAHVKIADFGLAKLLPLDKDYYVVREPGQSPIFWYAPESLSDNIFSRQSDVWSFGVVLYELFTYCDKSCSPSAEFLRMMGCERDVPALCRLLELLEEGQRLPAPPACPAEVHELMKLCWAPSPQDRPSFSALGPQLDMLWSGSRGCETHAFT
Sequence of human JAK1 catalytic kinase (JH1) domain (P23458 875-1153): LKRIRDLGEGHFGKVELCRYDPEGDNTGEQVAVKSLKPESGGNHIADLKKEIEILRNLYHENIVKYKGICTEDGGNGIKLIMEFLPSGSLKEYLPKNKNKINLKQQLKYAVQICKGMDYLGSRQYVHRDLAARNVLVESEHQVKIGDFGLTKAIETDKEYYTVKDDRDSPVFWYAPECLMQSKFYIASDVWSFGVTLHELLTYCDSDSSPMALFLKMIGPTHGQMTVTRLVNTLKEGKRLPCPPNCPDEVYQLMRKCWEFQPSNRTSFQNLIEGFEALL
Sequence of human TYK2 catalytic kinase (JH1) domain (P29597 897-1176): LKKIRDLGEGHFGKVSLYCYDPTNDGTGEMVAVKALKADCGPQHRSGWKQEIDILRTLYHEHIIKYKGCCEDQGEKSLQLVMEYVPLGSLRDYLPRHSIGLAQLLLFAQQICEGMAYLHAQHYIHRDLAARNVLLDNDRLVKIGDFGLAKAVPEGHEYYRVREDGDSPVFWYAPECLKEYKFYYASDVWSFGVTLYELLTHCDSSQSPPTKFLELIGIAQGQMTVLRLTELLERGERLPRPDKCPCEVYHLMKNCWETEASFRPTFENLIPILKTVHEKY
Sequence of human JAK2 catalytic kinase (JH1) domain (O60674 849-1124): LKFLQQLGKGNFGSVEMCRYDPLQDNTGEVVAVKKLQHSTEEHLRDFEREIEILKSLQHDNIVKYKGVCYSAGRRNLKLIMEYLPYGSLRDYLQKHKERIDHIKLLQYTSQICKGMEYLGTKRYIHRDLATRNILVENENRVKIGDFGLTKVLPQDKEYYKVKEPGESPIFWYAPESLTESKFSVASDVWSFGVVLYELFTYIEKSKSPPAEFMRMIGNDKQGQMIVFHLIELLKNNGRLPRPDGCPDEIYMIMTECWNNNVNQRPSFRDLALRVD

Compound | IC50 [1] [nM] | IC50 [2] [nM] | IC50 [3] [nM] | IC50 [4] [nM]
O=C([C@@H]1C[C@H]1F)N1C2CCC1CN(c1ccnc3[nH]c(C4CCOC4)nc13)C2 (stereo partly drawn) [Example 211, ((1S,2R)-2-fluorocyclopropyl)(3-(2-(tetrahydrofuran-3-yl)-3H-imidazo[4,5-b]pyridin-7-yl)-3,8-diazabicyclo[3.2.1]octan-8-yl)methanone] | 5780 | 10000 | 676 | 10000
O=C(C1CC1)N1C2CCC1CN(c1ncnn3cc(-c4cnn([C@@H]5CCOC5)c4)cc13)C2 [Example 156, cyclopropyl(3-(6-(1-((R)-tetrahydrofuran-3-yl)-1H-pyrazol-4-yl)pyrrolo[2,1-f][1,2,4]triazin-4-yl)-3,8-diazabicyclo[3.2.1]octan-8-yl)methanone] | 1500 | 3850 | 251 | 3860
Cc1ccc(-c2cc3c(N4CC5CCC(C4)N5C(=O)[C@@H]4C[C@H]4F)ncnn3c2)cn1 [Example 92, ((1S,2R)-2-fluorocyclopropyl)(3-(6-(6-methylpyridin-3-yl)pyrrolo[2,1-f][1,2,4]triazin-4-yl)-3,8-diazabicyclo[3.2.1]octan-8-yl)methanone] | 744 | 4820 | 42.2 | 1160
COc1nccc(-c2cc3c(N4CC5CCC(C4)N5C(=O)[C@@H]4C[C@H]4F)ccnc3[nH]2)c1F [Example 247, ((1S,2R)-2-fluorocyclopropyl)(3-(2-(3-fluoro-2-methoxypyridin-4-yl)-1H-pyrrolo[2,3-b]pyridin-4-yl)-3,8-diazabicyclo[3.2.1]octan-8-yl)methanone] | 40 | 168 | 1.4 | 18
Cn1cc(-c2cc3c(N4CC5CCC(C4)N5C(=O)C4CC(F)(F)C4)ncnn3c2)cn1 [Example 70, (3,3-difluorocyclobutyl)(3-(6-(1-methyl-1H-pyrazol-4-yl)pyrrolo[2,1-f][1,2,4]triazin-4-yl)-3,8-diazabicyclo[3.2.1]octan-8-yl)methanone] | 2430 | 5090 | 382 | 6360
O=C(C1CC1)N1C2CCC1CN(c1ccnc3[nH]c(-c4cnn(C(F)F)c4)nc13)C2 [Example 214, cyclopropyl(3-(2-(1-(difluoromethyl)-1H-pyrazol-4-yl)-3H-imidazo[4,5-b]pyridin-7-yl)-3,8-diazabicyclo[3.2.1]octan-8-yl)methanone] | 94 | 346 | 7.6 | 62
O=C([C@H]1C[C@@H]1F)N1C2CCC1CN(c1ncnn3cc(-c4cnn(C(F)F)c4)cc13)C2 (racemic) [Example 54, Rac-(3-(6-(1-(difluoromethyl)-1H-pyrazol-4-yl)pyrrolo[2,1-f][1,2,4]triazin-4-yl)-3,8-diazabicyclo[3.2.1]octan-8-yl)((1R,2S)-2-fluorocyclopropyl)methanone] | 645 | 4230 | 37.1 | 1320
COc1cc(-c2cc3c(N4CC5CCC(C4)N5S(=O)(=O)C4CC4)ncnc3[nH]2)ccn1 [Example 192] | 1860 | 10000 | 298 | 3060
O=C(C1CC1)N1C2CCC1CN(c1ncnn3cc(-c4cnn(C(F)F)c4)cc13)C2 [Example 150] | 1850 | 5620 | 190 | 3370
COc1ccc(-c2cc3c(N4CC5CCC(C4)N5C(=O)[C@@H]4C[C@H]4F)ncnc3[nH]2)cn1 [Example 225, ((1S,2R)-2-fluorocyclopropyl)(3-(6-(6-methoxypyridin-3-yl)-7H-pyrrolo[2,3-d]pyrimidin-4-yl)-3,8-diazabicyclo[3.2.1]octan-8-yl)methanone] | 245 | 735 | 21.3 | 357
O=C([C@@H]1C[C@H]1F)N1C2CCC1CN(c1ncnn3cc(-c4cnn(C(F)F)c4)cc13)C2 [Example 1, (3-(6-(1-(difluoromethyl)-1H-pyrazol-4-yl)pyrrolo[2,1-f][1,2,4]triazin-4-yl)-3,8-diazabicyclo[3.2.1]octan-8-yl)((1S,2R)-2-fluorocyclopropyl)methanone] | 228 | 1300 | 9 | 315
O=C(C1CCC1F)N1C2CCC1CN(c1ncnn3cc(-c4cnn(C(F)F)c4)cc13)C2 (centres unmarked) [Example 9, (3-(6-(1-(difluoromethyl)-1H-pyrazol-4-yl)pyrrolo[2,1-f][1,2,4]triazin-4-yl)-3,8-diazabicyclo[3.2.1]octan-8-yl)(2-fluorocyclobutyl)methanone] | 3080 | 5780 | 202 | 5700
Cn1cc(-c2cc3c(N4CC5CCC(C4)N5C(=O)C(F)(F)F)ncnn3c2)cn1 [Example 87, 2,2,2-trifluoro-1-(3-(6-(1-methyl-1H-pyrazol-4-yl)pyrrolo[2,1-f][1,2,4]triazin-4-yl)-3,8-diazabicyclo[3.2.1]octan-8-yl)ethan-1-one] | 1200 | 2550 | 266 | 4870
O=C([C@@H]1CC1(F)F)N1C2CCC1CN(c1ncnc3[nH]c(-c4cnn(C(F)F)c4)cc13)C2 [Example 222, ((S)-2,2-difluorocyclopropyl)(3-(6-(1-(difluoromethyl)-1H-pyrazol-4-yl)-7H-pyrrolo[2,3-d]pyrimidin-4-yl)-3,8-diazabicyclo[3.2.1]octan-8-yl)methanone] | 132 | 999 | 5.7 | 128
Cn1cc(-c2cc3c(N4CC5CCC(C4)N5C(=O)C4CC4)ncnn3c2)cn1 [Example 146, cyclopropyl(3-(6-(1-methyl-1H-pyrazol-4-yl)pyrrolo[2,1-f][1,2,4]triazin-4-yl)-3,8-diazabicyclo[3.2.1]octan-8-yl)methanone] | 1880 | 3240 | 166 | 5850
COc1cc(-c2cc3c(N4CC5CCC(C4)N5C(=O)[C@@H]4C[C@H]4F)ccnn3c2)ncn1 [Example 105, ((1S,2R)-2-fluorocyclopropyl)(3-(6-(6-methoxypyrimidin-4-yl)pyrrolo[1,2-b]pyridazin-4-yl)-3,8-diazabicyclo[3.2.1]octan-8-yl)methanone] | 356 | 6900 | 28.6 | 190
COc1cnc(-c2cc3c(N4CC5CCC(C4)N5C(=O)[C@@H]4C[C@H]4F)ccnn3c2)cn1 [Example 124, ((1S,2R)-2-fluorocyclopropyl)(3-(6-(5-methoxypyrazin-2-yl)pyrrolo[1,2-b]pyridazin-4-yl)-3,8-diazabicyclo[3.2.1]octan-8-yl)methanone] | 405 | 7440 | 54.5 | 700
Cn1cc(-c2cc3c(N4CC5CCC(C4)N5C(=O)CC(F)(F)F)ncnn3c2)cn1 [Example 59, 3,3,3-trifluoro-1-(3-(6-(1-methyl-1H-pyrazol-4-yl)pyrrolo[2,1-f][1,2,4]triazin-4-yl)-3,8-diazabicyclo[3.2.1]octan-8-yl)propan-1-one] | 3500 | 6940 | 652 | 9730
Cn1cc(-c2cc3c(N4CC5CCC(C4)N5C(=O)[C@@H]4C[C@H]4F)ccnn3c2)c(F)n1 [Example 118, (3-(6-(3-fluoro-1-methyl-1H-pyrazol-4-yl)pyrrolo[1,2-b]pyridazin-4-yl)-3,8-diazabicyclo[3.2.1]octan-8-yl)((1S,2R)-2-fluorocyclopropyl)methanone] | 92 | 502 | 1.8 | 28
Cc1cc(-c2cc3c(N4CC5CCC(C4)N5C(=O)[C@@H]4C[C@H]4F)ncnc3[nH]2)ccn1 [Example 230, ((1S,2R)-2-fluorocyclopropyl)(3-(6-(2-methylpyridin-4-yl)-7H-pyrrolo[2,3-d]pyrimidin-4-yl)-3,8-diazabicyclo[3.2.1]octan-8-yl)methanone] | 91 | 742 | 8.2 | 218
O=C([C@@H]1C[C@H]1F)N1C2CCC1CN(c1ccnn3cc(-c4ccnc(OC(F)F)c4)cc13)C2 [Example 111, (3-(6-(2-(difluoromethoxy)pyridin-4-yl)pyrrolo[1,2-b]pyridazin-4-yl)-3,8-diazabicyclo[3.2.1]octan-8-yl)((1S,2R)-2-fluorocyclopropyl)methanone] | 62 | 981 | 3.6 | 57
Cn1cc(-c2cc3c(N4CC5CCC(C4)N5C(=O)[C@@H]4C[C@H]4F)ccnc3[nH]2)c(F)n1 [Example 244, (3-(2-(3-fluoro-1-methyl-1H-pyrazol-4-yl)-1H-pyrrolo[2,3-b]pyridin-4-yl)-3,8-diazabicyclo[3.2.1]octan-8-yl)((1S,2R)-2-fluorocyclopropyl)methanone] | 18 | 73 | 0.2 | 4
Cn1cc(-c2cc3c(N4CC5CCC(C4)N5C(=O)CC#N)ncnn3c2)cn1 [Example 62, 3-(3-(6-(1-methyl-1H-pyrazol-4-yl)pyrrolo[2,1-f][1,2,4]triazin-4-yl)-3,8-diazabicyclo[3.2.1]octan-8-yl)-3-oxopropanenitrile] | 860 | 6830 | 351 | 8710
